Results as given in US20220213030A1, “AMINOGUANIDINE HYDRAZONES AS RETROMER STABILIZERS USEFUL FOR TREATING NEUROLOGICAL DISEASES” (OSPEDALE SAN RAFFAELE SRL, priority 2019, published 2022).
“Also recorded” adds a separate entry of the source.

Columns and labels:
[1] = system: LC3; assay: pHfluorin-LC3 autophagy assay in Neuro2a clone 7B11; format: cell-based, mouse; settings: BafilomycinA1 200 nM, Torin-1 250 nM, 48 hours
Method: Besides increasing the functionality of lysosomes we hypothesised that compound 2a could also enhance the autophagy system. Therefore we used a pHfluorin-LC3-based assay to monitor the autophagy process in living Neuro2a cells. We have established in our laboratory a Neuro2a stable cell clone (7B11) that expresses the Microtubule-associated protein 1A/1B-light chain 3 (LC3) coupled with the ph-sensitive GFP/phlourin.
Neuro2a-7B11 cells were incubated with increasing concentrations of compound 2a (0.1-100 μM) as well as with the control molecules Bafilomycin Al and Torin-1. After 48 hours the GFP/phluorin signal, which is ph-sensitive, was measured by flow cytometry and fold changes calculated over untreated cells.
Autophagy assay were done using a stable Neuro2a cell clone expressing the pHluorin-mKate2-tagged human LC3 plasmids, Cell clones were generated according our published methods (Mazzocchi 2016). Upon transfection, cells were selected by 400 μg/mL G418 Disulfate Salt Solution (Sigma-Aldrich, St. Louis, Mo.) and further cloned by limiting dilution. […] Neuro2a 7B11 cells were treated with Compound 2a (0.1-100 μM) for 48 hours then MFI levels of the pHfluorin were measured in living cells by flow cytometry.

[2] = target: VPS35 (Mus musculus, UniProt Q9EQH3+Q9QZ88); assay: VPS35 levels in Neuro2a cells by Western blot (screening of amino guanidine hydrazones); format: cell-based; design: endogenous in cells; host or cells: Neuro2a; settings: 48 hours; for VPS35 levels (in words): compounds at 10 μM; for Mean fold changes (VPS35 levels normalized on β-Actin, over vehicle-treated cells): 10 μM, independent cultures n=3
Method: To functionally screen the majority of synthetized amino guanidine hydrazones of the invention and determine their effects on the retromer complex, we incubated Neuro2a cells with each synthetized molecule at the concentration of 10 μM.
The test was executed in triplicate for each tested compound of the invention, cells lysates were established after 48 hours' incubation, and levels of VPS35 were normalized on the housekeeping gene β-Actin by Western blot. We observed a preliminary SAR among the compounds.
Fold changes are calculated over normalized VPS35 levels measured in vehicle-treated cells.
Neuro2a cells were seeded on 12 wells multiwell at the concentration of 100 000 cells/well. Cells were incubated with each compound, including the standard R55, at 10 μM for 48 hours. Cells were then washed in PBS 1× and lysed in a buffer containing Tris-HCl 10 mM pH8, EDTA 1 mM pH8, NaCl 100 mM, NP40 1%, with protease inhibitor cocktail (Sigma) 1×. Using a cell scraper total lysates were collected from each well, quantified with BCA (BCA protein assay, Thermofisher). Five μg were resolved on precast 10% acrylamide gel (Biorad). Proteins were transferred to a PVDF membrane (Millipore) and western blot were performed using the following antibodies: goat αVPS35 (1:1000), mouse α-βActin (1:10000). Detection of proteins was obtained by a chemiluminescence detection kit (PerkinElmer).

[3] = system: TNFα; assay: LPS-mediated TNFα release in Raw 264.7 cells (ELISA); format: cell-based, murine; settings: 10 μM for 1 hour, then LPS 100 ng/ml, 4 hours
Source text: We observed that the molecular structure featuring compound 2a is reminiscent of the patented compound CNI-1493 (N,N′-bis [3,5 -bis [1(aminoiminomethyl) hydrazono]ethyl]phenyl]decanediamide tetrahydrochloride (CAS Reg. No. 164301-51-3)), (FIG. 16A). CNI-1493 inhibits macrophage activation in the animal model of Multiple Sclerosis producing a general amelioration of clinical and pathological outcomes of these mice (Martiney, Rajan et al. 1998). […] CNI-1493 suppresses the production of pro-inflammatory cytokines, belonging to the plethora of detrimental signals that accompany neurodegenerative processes in several disorders. […] We followed experimental procedures published by Bianchi and colleagues that describe the ability of CNI-1493 to blunt the production of this cytokine (Bianchi, Bloom et al. 1996). Cells were incubated with CNI-1493 (10 μM) or with compound 2a (10 μM) for 1 hour and then we added the LPS (100 ng/ml) to media. We next collected supernatants (4 hours after the LPS stimulation) form cells for the evaluation of TNFα levels.
Raw 264.7 cells (10^5/well) were treated with compound 2a, CNI-1493 or vehicle for 1 hour then we applied LPS (100 ng/ml) and supernatants were collected after 4 hours. […] Concentrations of TNFα were calculated according to a standard curve and expressed as nanograms per […]. […]

[4] = system: TNFα, IL-1(3, IL-6 and macrophage inflammatory proteins 1α and 1β); settings: cited from earlier work
[5] = system: G93A mice; settings: mouse, in vivo; cited from earlier work
[6] = system: Neuro2a cells receiving H2O2; assay: H2O2-induced cell death in Neuro2a cells; format: cell-based, mouse; settings: compound 10 μM, H2O2 200 μM, 48 hours
Method: We tested the specificity of compound 2a in an assay based on H2O2-induced chromosomal breaks that lead to DNA fragmentation and cell death. In principle such DNA lesions are the cause of cell death according to a process that is not influenced by the retromer. Thus, our leads should not be able to modulate rates cell survival in Neuro2a cells receiving H2O2. We incubated Neuro2a cells with 200 μM of H2O2 along with compounds 2a, 2c, 2d and 2g (10 μM).
Cell survival experiments were run on 96-well plates using Cell Counting Kit-8 (CCK8) survival kit (96992-Sigma) according the manufacturer's recommendations. Compound 2a cytotoxicity was tested on Neuro2a cells receiving increasing amount of compound 2a (1, 10, 50, 100, 200, 500 and 1000 μM) for 48 hours.

| SMILES | Mean fold changes (VPS35 levels normalized on β-Actin, over vehicle-treated cells) [2] | further results |
| --- | --- | --- |
| CO/C1=C\C(C)=C\[C@@H](C)[C@@H](O)[C@@H](C)C/C(C)=C/C=C/[C@H](OC)[C@@H]([C@@H](C)[C@@H](O)[C@H](C)[C@@]2(O)C[C@@H](O)[C@H](C)[C@@H](C(C)C)O2)OC1=O [Bafilomycin A1, reference compound] |  | GFP/phluorin fluorescence, control molecules [1]: augmented fluorescence |
| C/C(=N\N=C(N)N)c1cc(NC(=O)CCCCCCCCC(=O)Nc2cc(/C(C)=N/N=C(N)N)cc(/C(C)=N/N=C(N)N)c2)cc(/C(C)=N/N=C(N)N)c1.Cl.Cl.Cl.Cl [CNI-1493, reference compound] |  | VPS35 levels (in words) [2]: did not increased; VPS35 levels (in words) ([2]; listed as CNI-1494): does not modulate VPS35; TNFα levels in supernatants [3]: significantly inhibited the expression of this cytokine; also recorded: significantly blunted TNFα expression; expression of pro-inflammatory cytokines [4]: inhibits the expression; onset of the disease and lifespan [5]: delayed the onset of the disease and increased the lifespan of mice |
| N=C(N)NN=Cc1ccc(Br)c(C=NNC(=N)N)c1 [Compound 2c, 4-Bromo-1,3-bis-amino guanidine phenyl hydrazone] | 1.617 | cell survival with H2O2 with or without compound [6]: did not result in any significant difference |
| N=C(N)NN=Cc1ccc(O)c(C=NNC(=N)N)c1 [Compound 2d, 1-Hydroxy-2,4-bis-aminoguanidine phenyl hydrazone] | 2.477 | cell survival with H2O2 with or without compound [6]: did not result in any significant difference |
| CCCCOc1ccc(C=NNC(=N)N)cc1C=NNC(=N)N [Compound 2f, 1-(n-Butoxy)-2,4-bis-aminoguanidine phenyl hydrazone] | 1.415 |  |
| Cc1cc(C=NNC(=N)N)cc(C=NNC(=N)N)c1 [Compound 2g, 5-Methyl-1,3-bis-aminoguanidine phenyl hydrazone] | 2.080 | cell survival with H2O2 with or without compound [6]: did not result in any significant difference |
| N=C(NN=Cc1cccc(C=NNC(=N)N2CCCC2)c1)N1CCCC1 [Compound 2v, 1,3-bis-(N3-pyrrolidinyl) guanidine phenyl hydrazone] | 1.978 |  |
| C(=NNc1nc2ccccc2[nH]1)c1cccc(C=NNc2nc3ccccc3[nH]2)c1 [Compound 2z, 1,3-Bis-(N2N3-benzimidazolidinyl) guanidine phenyl hydrazone] | 1.105 |  |
| CCC(=O)N1CCN(c2ccc(-n3c(=O)ccc4cnc5ccc(-c6cnc7ccccc7c6)cc5c43)cc2C(F)(F)F)CC1 [Torin 1, reference compound] |  | GFP/phluorin fluorescence, control molecules [1]: significantly dampened |

The next lines start with results.

| Mean fold changes (VPS35 levels normalized on β-Actin, over vehicle-treated cells) [2] | SMILES | further results |
| --- | --- | --- |
| 1.300 | N=C(N)NN=Cc1cccc(C=NNC(=N)N)c1Br [Compound 2b, 2-Bromo-1,3-bis-aminoguanidine phenyl hydrazone] |  |
| 2.070 | COc1ccc(C=NNC(=N)N)cc1C=NNC(=N)N [Compound 2e, 1-Methoxy-2,4-bis-amino guanidine phenyl hydrazone] |  |
| 1.310 | COc1cc(C=NNC(=N)N)cc(C=NNC(=N)N)c1 [Compound 2i, 1-Methoxy-3,5-bis-aminoguanidine phenyl hydrazone] |  |
| 1.660 | CC(=O)Nc1cc(C=NNC(=N)N)cc(C=NNC(=N)N)c1 [Compound 2l, 1-Acetamido-3,5-bis-aminoguanidine phenyl hydrazone] |  |
| 0.974 | Cc1ccc(C(=O)Nc2cc(C=NNC(=N)N)cc(C=NNC(=N)N)c2)cc1 [Compound 2m, 1-p-Tolylamido-3,5-bis-aminoguanidine phenyl hydrazone] |  |
| 1.280 | CS(=O)(=O)Nc1cc(C=NNC(=N)N)cc(C=NNC(=N)N)c1 [Compound 2n, 1-Methylsulfonamido-3,5-bis-aminoguanidine phenyl hydrazone] |  |
| 1.501 | Cc1ccc(S(=O)(=O)Nc2cc(C=NNC(=N)N)cc(C=NNC(=N)N)c2)cc1 [Compound 2o, 1-p-Tolylsulfonamido-3,5-bis-aminoguanidine phenyl hydrazone] |  |
| 1.582 | COC(=O)c1cc(C=NNC(=N)N)cc(C=NNC(=N)N)c1 [Compound 2p, 1-Carbomethoxy-3,5-bis-amino guanidine phenyl hydrazone] |  |
| 1.784 | N=C(N)NN=Cc1cc(C=NNC(=N)N)cc(C(=O)N2CCN(c3ccccc3)CC2)c1 [Compound 2q, 5-(N4-phenylpiperazinyl)carboxamido-3,5-bis-amino guanidine phenyl hydrazone] |  |
| 1.154 | N=C(N)NN=Cc1cc(C=NNC(=N)N)cc(C=NNC(=N)N)c1 [Compound 2r, 1-3,5-tris-amino guanidine phenyl hydrazone] |  |
| 0.625 | CCCCNC(=N)NN=Cc1cc(C=NNC(=N)NCCCC)cc(NC(=O)c2ccc(C)cc2)c1 [Compound 2w, 1-p-Tolylamido-3,5-bis-(N3-n-butylamino) guanidine phenyl hydrazone] |  |
| 0.600 | C/C(=N\NC(=N)N)c1cccc(/C(C)=N/NC(=N)N)c1 [Compound (VIII), 1′,3′-Dimethyl-1,3-bis-aminoguanidine phenyl hydrazone, reference compound] |  |
